Values joined by “and” are separate entries in the source; they are usually repeats but may differ in a detail not shown here. Equal values may be shown once.
Assays:
SfurOBP11 = SfurOBP11 (Sogatella furcifera, UniProt V5T6E3); assay: biochemical; type: binding
In short: (§1)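 K1-NPN came from titrating 2.0 µM protein (50 mM Tris-HCl, pH 7.4) with 1-NPN. Odorants at 2-20 µM then competed against 2.0 µM protein plus 2.0 µM 1-NPN for 2 min, with excitation at 337 nm and emission recorded over 390-490 nm. IC50 values were converted to Ki via Ki = IC50/(1 + [1-NPN]/K1-NPN).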

SfurOBP2 = SfurOBP2 (Sogatella furcifera, UniProt V5T759); assay: biochemical; type: binding
In short: as §1

SfurOBP3 = SfurOBP3 (Sogatella furcifera, UniProt V5T818); assay: biochemical; type: binding; conditions: for Fluorescence competitive binding assay, fluorescence intensity: OBP3, three replicate columns
In short: as §1

SfurOBP1 = SfurOBP1 (Sogatella furcifera, UniProt V5T8N5); assay: biochemical; type: binding; conditions: for Fluorescence competitive binding assay, fluorescence intensity: OBP1, three replicate columns
In short: as §1

S. furcifera adults = assay: Y-tube olfactometer behavioral trials; type: in vivo, Sogatella furcifera; conditions: odorant 50 µL/L vs hexane; adults
In short: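 Single S. furcifera adults (2 days post-emergence, starved 0.5 h) chose between odorant (100 µL of 50 µL/L on filter paper) and hexane control in a glass Y-tube, charcoal-filtered humidified air 300 mL/min per arm, 25 ± 1 °C, 50% RH. Choice scored if insect passed half an arm and stayed >1 min within 10 min; 45 insects per compound, chi-squared test.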

Chain of SfurOBP1 (V5T8N5 entry or part of it): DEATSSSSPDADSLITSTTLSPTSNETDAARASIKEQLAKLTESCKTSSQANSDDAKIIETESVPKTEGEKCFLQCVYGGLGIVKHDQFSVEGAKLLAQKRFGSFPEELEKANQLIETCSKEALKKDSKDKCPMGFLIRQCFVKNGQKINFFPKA
Chain of SfurOBP11 (V5T6E3 entry or part of it): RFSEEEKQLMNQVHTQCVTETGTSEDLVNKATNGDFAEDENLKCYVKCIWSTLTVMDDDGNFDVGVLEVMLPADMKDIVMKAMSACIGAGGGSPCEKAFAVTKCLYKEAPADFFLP
Chain of SfurOBP2 (V5T759 entry or part of it): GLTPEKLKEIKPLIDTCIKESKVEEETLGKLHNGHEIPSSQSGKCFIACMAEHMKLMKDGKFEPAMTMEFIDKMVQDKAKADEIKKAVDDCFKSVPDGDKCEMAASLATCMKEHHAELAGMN
Chain of SfurOBP3 (V5T818 entry or part of it): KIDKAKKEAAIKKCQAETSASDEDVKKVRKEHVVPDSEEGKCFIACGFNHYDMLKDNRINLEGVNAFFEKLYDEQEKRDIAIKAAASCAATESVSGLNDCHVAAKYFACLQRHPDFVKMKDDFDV

C=CC(C)(O)CCC=C(C)CCC=C(C)C (mixture of isomers) [nerolidol]
IC50 (SfurOBP11; SfurOBP11, protein and 1-NPN both 2.0 µM, competitor 2-20 µM, read-out: IC50): > 20 µM
Fluorescence intensity, fluorescence competitive binding assay, OBP11 (SfurOBP11; ligand concentration 2, replicate 1): 32108
Fluorescence intensity, fluorescence competitive binding assay, OBP11 (SfurOBP11; ligand concentration 2, replicate 2): 31162
Fluorescence intensity, fluorescence competitive binding assay, OBP11 (SfurOBP11; ligand concentration 2, replicate 3): 30215
Fluorescence intensity, fluorescence competitive binding assay, OBP11 (SfurOBP11; ligand concentration 4, replicate 1): 28342
Fluorescence intensity, fluorescence competitive binding assay, OBP11 (SfurOBP11; ligand concentration 4, replicate 2): 28762
Fluorescence intensity, fluorescence competitive binding assay, OBP11 (SfurOBP11; ligand concentration 4, replicate 3): 29181
Fluorescence intensity, fluorescence competitive binding assay, OBP11 (SfurOBP11; ligand concentration 6, replicate 1): 25372
Fluorescence intensity, fluorescence competitive binding assay, OBP11 (SfurOBP11; ligand concentration 6, replicate 2): 24386
Fluorescence intensity, fluorescence competitive binding assay, OBP11 (SfurOBP11; ligand concentration 6, replicate 3): 25974
Fluorescence intensity, fluorescence competitive binding assay, OBP11 (SfurOBP11; ligand concentration 8, replicate 1): 24916
Fluorescence intensity, fluorescence competitive binding assay, OBP11 (SfurOBP11; ligand concentration 8, replicate 2): 25493
Fluorescence intensity, fluorescence competitive binding assay, OBP11 (SfurOBP11; ligand concentration 8, replicate 3): 26070
Fluorescence intensity, fluorescence competitive binding assay, OBP11 (SfurOBP11; ligand concentration 10, replicate 1): 22613
Fluorescence intensity, fluorescence competitive binding assay, OBP11 (SfurOBP11; ligand concentration 10, replicate 2): 22095
Fluorescence intensity, fluorescence competitive binding assay, OBP11 (SfurOBP11; ligand concentration 10, replicate 3): 23428
Fluorescence intensity, fluorescence competitive binding assay, OBP11 (SfurOBP11; ligand concentration 12, replicate 1): 21169
Fluorescence intensity, fluorescence competitive binding assay, OBP11 (SfurOBP11; ligand concentration 12, replicate 2): 22102
Fluorescence intensity, fluorescence competitive binding assay, OBP11 (SfurOBP11; ligand concentration 12, replicate 3): 22210
Fluorescence intensity, fluorescence competitive binding assay, OBP11 (SfurOBP11; ligand concentration 14, replicate 1): 20351
Fluorescence intensity, fluorescence competitive binding assay, OBP11 (SfurOBP11; ligand concentration 14, replicate 2): 23661
Fluorescence intensity, fluorescence competitive binding assay, OBP11 (SfurOBP11; ligand concentration 14, replicate 3): 21671
Fluorescence intensity, fluorescence competitive binding assay, OBP11 (SfurOBP11; ligand concentration 16, replicate 1): 17887
Fluorescence intensity, fluorescence competitive binding assay, OBP11 (SfurOBP11; ligand concentration 16, replicate 2): 19544
Fluorescence intensity, fluorescence competitive binding assay, OBP11 (SfurOBP11; ligand concentration 16, replicate 3): 17889
Fluorescence intensity, fluorescence competitive binding assay, OBP11 (SfurOBP11; ligand concentration 18, replicate 1): 23369
Fluorescence intensity, fluorescence competitive binding assay, OBP11 (SfurOBP11; ligand concentration 18, replicate 2): 23675
Fluorescence intensity, fluorescence competitive binding assay, OBP11 (SfurOBP11; ligand concentration 18, replicate 3): 24479
Fluorescence intensity, fluorescence competitive binding assay, OBP11 (SfurOBP11; ligand concentration 20, replicate 1): 22182
Fluorescence intensity, fluorescence competitive binding assay, OBP11 (SfurOBP11; ligand concentration 20, replicate 2): 24009
Fluorescence intensity, fluorescence competitive binding assay, OBP11 (SfurOBP11; ligand concentration 20, replicate 3): 23801
IC50 (SfurOBP2; SfurOBP2, protein and 1-NPN both 2.0 µM, competitor 2-20 µM, read-out: IC50): 18.2 µM
Fluorescence competitive binding assay, OBP2 (raw fluorescence reading) (SfurOBP2; ligand concentration 2 (unit not given), replicate column 1 of 3): 16746
Fluorescence competitive binding assay, OBP2 (raw fluorescence reading) (SfurOBP2; ligand concentration 2 (unit not given), replicate column 2 of 3): 14676
Fluorescence competitive binding assay, OBP2 (raw fluorescence reading) (SfurOBP2; ligand concentration 2 (unit not given), replicate column 3 of 3): 15441
Fluorescence competitive binding assay, OBP2 (raw fluorescence reading) (SfurOBP2; ligand concentration 4 (unit not given), replicate column 1 of 3): 14875
Fluorescence competitive binding assay, OBP2 (raw fluorescence reading) (SfurOBP2; ligand concentration 4 (unit not given), replicate column 2 of 3): 15827
Fluorescence competitive binding assay, OBP2 (raw fluorescence reading) (SfurOBP2; ligand concentration 4 (unit not given), replicate column 3 of 3): 16107
Fluorescence competitive binding assay, OBP2 (raw fluorescence reading) (SfurOBP2; ligand concentration 6 (unit not given), replicate column 1 of 3): 14243
Fluorescence competitive binding assay, OBP2 (raw fluorescence reading) (SfurOBP2; ligand concentration 6 (unit not given), replicate column 2 of 3): 15150
Fluorescence competitive binding assay, OBP2 (raw fluorescence reading) (SfurOBP2; ligand concentration 6 (unit not given), replicate column 3 of 3): 15095
Fluorescence competitive binding assay, OBP2 (raw fluorescence reading) (SfurOBP2; ligand concentration 8 (unit not given), replicate column 1 of 3): 12994
Fluorescence competitive binding assay, OBP2 (raw fluorescence reading) (SfurOBP2; ligand concentration 8 (unit not given), replicate column 2 of 3): 13858
Fluorescence competitive binding assay, OBP2 (raw fluorescence reading) (SfurOBP2; ligand concentration 8 (unit not given), replicate column 3 of 3): 14632
Fluorescence competitive binding assay, OBP2 (raw fluorescence reading) (SfurOBP2; ligand concentration 10 (unit not given), replicate column 1 of 3): 12524
Fluorescence competitive binding assay, OBP2 (raw fluorescence reading) (SfurOBP2; ligand concentration 10 (unit not given), replicate column 2 of 3): 13543
Fluorescence competitive binding assay, OBP2 (raw fluorescence reading) (SfurOBP2; ligand concentration 10 (unit not given), replicate column 3 of 3): 13950
Fluorescence competitive binding assay, OBP2 (raw fluorescence reading) (SfurOBP2; ligand concentration 12 (unit not given), replicate column 1 of 3): 11798
Fluorescence competitive binding assay, OBP2 (raw fluorescence reading) (SfurOBP2; ligand concentration 12 (unit not given), replicate column 2 of 3): 13085
Fluorescence competitive binding assay, OBP2 (raw fluorescence reading) (SfurOBP2; ligand concentration 12 (unit not given), replicate column 3 of 3): 12945
Fluorescence competitive binding assay, OBP2 (raw fluorescence reading) (SfurOBP2; ligand concentration 14 (unit not given), replicate column 1 of 3): 12191
Fluorescence competitive binding assay, OBP2 (raw fluorescence reading) (SfurOBP2; ligand concentration 14 (unit not given), replicate column 2 of 3): 12517
Fluorescence competitive binding assay, OBP2 (raw fluorescence reading) (SfurOBP2; ligand concentration 14 (unit not given), replicate column 3 of 3): 12178
Fluorescence competitive binding assay, OBP2 (raw fluorescence reading) (SfurOBP2; ligand concentration 16 (unit not given), replicate column 1 of 3): 11027
Fluorescence competitive binding assay, OBP2 (raw fluorescence reading) (SfurOBP2; ligand concentration 16 (unit not given), replicate column 2 of 3): 11256
Fluorescence competitive binding assay, OBP2 (raw fluorescence reading) (SfurOBP2; ligand concentration 16 (unit not given), replicate column 3 of 3): 11449
Fluorescence competitive binding assay, OBP2 (raw fluorescence reading) (SfurOBP2; ligand concentration 18 (unit not given), replicate column 1 of 3): 11299
Fluorescence competitive binding assay, OBP2 (raw fluorescence reading) (SfurOBP2; ligand concentration 18 (unit not given), replicate column 2 of 3): 11344
Fluorescence competitive binding assay, OBP2 (raw fluorescence reading) (SfurOBP2; ligand concentration 18 (unit not given), replicate column 3 of 3): 11251
Fluorescence competitive binding assay, OBP2 (raw fluorescence reading) (SfurOBP2; ligand concentration 20 (unit not given), replicate column 1 of 3): 11544
Fluorescence competitive binding assay, OBP2 (raw fluorescence reading) (SfurOBP2; ligand concentration 20 (unit not given), replicate column 2 of 3): 11076
Fluorescence competitive binding assay, OBP2 (raw fluorescence reading) (SfurOBP2; ligand concentration 20 (unit not given), replicate column 3 of 3): 11172
Fluorescence competitive binding assay, fluorescence intensity (SfurOBP3; ligand concentration 2): 55523 and 54254 and 55950
Fluorescence competitive binding assay, fluorescence intensity (SfurOBP3; ligand concentration 4): 52204 and 49599 and 49733
Fluorescence competitive binding assay, fluorescence intensity (SfurOBP3; ligand concentration 6): 48530 and 49919 and 47140
Fluorescence competitive binding assay, fluorescence intensity (SfurOBP3; ligand concentration 8): 48179 and 44521 and 46350
Fluorescence competitive binding assay, fluorescence intensity (SfurOBP3; ligand concentration 10): 42323 and 44632 and 41414
Fluorescence competitive binding assay, fluorescence intensity (SfurOBP3; ligand concentration 12): 39705 and 38987 and 37616
Fluorescence competitive binding assay, fluorescence intensity (SfurOBP3; ligand concentration 14): 34880 and 34317 and 34633
Fluorescence competitive binding assay, fluorescence intensity (SfurOBP3; ligand concentration 16): 32423 and 30011 and 29519
Fluorescence competitive binding assay, fluorescence intensity (SfurOBP3; ligand concentration 18): 30169 and 30976 and 30764
Fluorescence competitive binding assay, fluorescence intensity (SfurOBP3; ligand concentration 20): 29092 and 31304 and 30368
binding affinity to SfurOBP3 (in words) (SfurOBP3; SfurOBP3): high binding affinities
IC50 (SfurOBP3; SfurOBP3, protein and 1-NPN both 2.0 µM, competitor 2-20 µM, read-out: IC50): 19 µM
Fluorescence competitive binding assay, fluorescence intensity (SfurOBP1; ligand concentration 2 (μM)): 6708 and 6744 and 6934
Fluorescence competitive binding assay, fluorescence intensity (SfurOBP1; ligand concentration 4 (μM)): 6359 and 8427 and 6473
Fluorescence competitive binding assay, fluorescence intensity (SfurOBP1; ligand concentration 6 (μM)): 6867 and 6865 and 7375
Fluorescence competitive binding assay, fluorescence intensity (SfurOBP1; ligand concentration 8 (μM)): 8143 and 7305 and 8959
Fluorescence competitive binding assay, fluorescence intensity (SfurOBP1; ligand concentration 10 (μM)): 7362 and 11085 and 8523
Fluorescence competitive binding assay, fluorescence intensity (SfurOBP1; ligand concentration 12 (μM)): 6544 and 7094 and 6753
Fluorescence competitive binding assay, fluorescence intensity (SfurOBP1; ligand concentration 14 (μM)): 7135 and 7404 and 8089
Fluorescence competitive binding assay, fluorescence intensity (SfurOBP1; ligand concentration 16 (μM)): 5378 and 6818 and 6356
Fluorescence competitive binding assay, fluorescence intensity (SfurOBP1; ligand concentration 18 (μM)): 6689 and 7935 and 7391
Fluorescence competitive binding assay, fluorescence intensity (SfurOBP1; ligand concentration 20 (μM)): 6918 and 6511 and 6565
IC50 (SfurOBP1; SfurOBP1, protein and 1-NPN both 2.0 µM, competitor 2-20 µM, read-out: IC50): > 20 µM
number of insects choosing hexane arm (S. furcifera adults): 13
number of insects choosing volatilies arm (S. furcifera adults): 15
number of insects failed (no choice) (S. furcifera adults): 12

Reference: article PMC6409085, “Three odorant-binding proteins are involved in the behavioral response of Sogatella furcifera to rice plant volatiles” (PeerJ, 2019)
